The values that follow come from ChEMBL document CHEMBL4680262, “Development of oxathiino[6,5-b]pyridine 2,2-dioxide derivatives as selective inhibitors of tumor-related carbonic anhydrases IX and XII” (Eur J Med Chem, 2020).

One assay has as its target Carbonic anhydrase 1 (Homo sapiens, UniProt P00915). Nature of the assay: Inhibition of recombinant human carbonic anhydrase 1 incubated for 6 hrs prior to testing measured for 10 to 100 secs by phenol red-based stopped-flow CO2 hydration assay.
The next assay concerns the target Carbonic anhydrase 9 (Homo sapiens, UniProt Q16790). Nature of the assay: Inhibition of recombinant human carbonic anhydrase 9 incubated for 6 hrs prior to testing measured for 10 to 100 secs by phenol red-based stopped-flow CO2 hydration assay.
A further assay has as its target Carbonic anhydrase 2 (Homo sapiens, UniProt P00918). Nature of the assay: Inhibition of recombinant human carbonic anhydrase 2 incubated for 6 hrs prior to testing measured for 10 to 100 secs by phenol red-based stopped-flow CO2 hydration assay.
The next assay has as its system A549. Nature of the assay: Cytotoxicity against human A549 cells assessed as reduction in cell viability incubated for 48 hrs by MTT assay. It counts as functional, cell-based. Conditions: A549, 48 h.
The subject of the next assay is MCF7. Nature of the assay: Cytotoxicity against human MCF7 cells assessed as reduction in cell viability incubated for 48 hrs by MTT assay. It counts as functional, cell-based. Conditions: MCF7, 48 h. (In general: Formazan colour is commonly taken as a measure of viable cells.)
A further assay deals with HeLa. Nature of the assay: Cytotoxicity against human HeLa cells assessed as reduction in cell viability incubated for 48 hrs by MTT assay. It counts as functional, cell-based.

Chain of Carbonic anhydrase 1 (P00915 whole entry): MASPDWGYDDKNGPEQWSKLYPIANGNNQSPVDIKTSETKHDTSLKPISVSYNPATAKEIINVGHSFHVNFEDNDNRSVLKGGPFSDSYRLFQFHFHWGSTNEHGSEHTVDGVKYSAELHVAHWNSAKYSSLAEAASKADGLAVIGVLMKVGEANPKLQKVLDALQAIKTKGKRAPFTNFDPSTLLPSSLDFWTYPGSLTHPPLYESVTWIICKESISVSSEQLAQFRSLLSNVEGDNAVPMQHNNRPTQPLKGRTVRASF

The term Ki denotes the equilibrium dissociation constant of an inhibitor or competing ligand from its target. As for `O=S1(=O)C=Cc2cc(-c3ccc(Cl)cc3)cnc2O1`, the inhibition constant Ki at Carbonic anhydrase 1 is more than 100 µM; at Carbonic anhydrase 9, 86.3 nM; on Carbonic anhydrase 2, more than 100 µM.

Regarding `O=S1(=O)C=Cc2cc(-c3ccc(OC(F)(F)F)cc3)cnc2O1`, the Ki was more than 100 µM at Carbonic anhydrase 1, 200 nM on Carbonic anhydrase 9 and more than 100 µM on Carbonic anhydrase 2.

Broadly, the IC50 is the midpoint of a concentration-inhibition curve. Take `O=S1(=O)C=Cc2cc(-c3ccc(C(F)(F)F)cc3)cnc2O1`: the IC50 in the assay on A549 came out at 77 µM; with MCF7, 75 µM; in the assay with HeLa, 42 µM. In addition, at Carbonic anhydrase 9, the Ki turned out to be 70.1 nM.

Regarding `COc1ccc(-c2cnc3c(c2)C=CS(=O)(=O)O3)cc1`, the Ki on Carbonic anhydrase 1 was more than 100 µM; at Carbonic anhydrase 9, 86.8 nM; on Carbonic anhydrase 2, more than 100 µM.

Consider `O=S1(=O)C=Cc2cc(-c3ccc(-c4ccccc4)cc3)cnc2O1`, for which the values for the Ki at Carbonic anhydrase 1, at Carbonic anhydrase 9 and on Carbonic anhydrase 2 were more than 100 µM, 210 nM and more than 100 µM, respectively.

As to `O=S1(=O)C=Cc2cc(-c3cc(Cl)cc(Cl)c3)cnc2O1`, the 50% inhibitory concentration (IC50) with A549 was 14 µM; in the assay with MCF7, 20 µM; in the assay with HeLa, 4.8 µM. The Ki at Carbonic anhydrase 1 was more than 100 µM; at Carbonic anhydrase 9 it was 56.9 nM; on Carbonic anhydrase 2, more than 100 µM.

On to `O=S1(=O)C=Cc2cc(-c3cccc4ccccc34)cnc2O1`, for which, on Carbonic anhydrase 9, the Ki stood at 221 nM.

`O=S1(=O)C=Cc2cc(-c3ccccc3)cnc2O1`: the inhibitory constant (Ki) on Carbonic anhydrase 1 was more than 100 µM; at Carbonic anhydrase 9, 134 nM; at Carbonic anhydrase 2, more than 100 µM.

For `COc1cccc(-c2cnc3c(c2)C=CS(=O)(=O)O3)c1`, the Ki on Carbonic anhydrase 1 is more than 100 µM; at Carbonic anhydrase 9, 137 nM; at Carbonic anhydrase 2, more than 100 µM.

As to `O=S1(=O)C=Cc2cccnc2O1`, the Ki at Carbonic anhydrase 1 came out at 64.1 µM; at Carbonic anhydrase 9 it was 169 nM; on Carbonic anhydrase 2, 14 µM.

For the compound `CC(C)(C)c1ccc(-c2cnc3c(c2)C=CS(=O)(=O)O3)cc1`, the IC50 was 149 µM with A549, more than 500 µM in the assay with MCF7 and 171 µM with HeLa. Besides, the Ki at Carbonic anhydrase 9 was 31.4 nM.
